In PubChem BioAssay (NCI):
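1) Cells in 96-well plates. 2) Compound, 48 h, 5 concentrations. 3) Linear interpolation between surrounding doses. 4) Unreached endpoint = highest concentration. TGI marks complete inhibition of growth.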

How the values were obtained:
Experiment in all cases: NCI anticancer screen, dose series, 48 h
[1] = test system: CCRF-CEM leukemia
[2] = test system: A549 NSCLC
[3] = test system: T-47D breast
[4] = test system: SR leukemia
[5] = test system: LOX IMVI melanoma
[6] = test system: BT-549 breast
[7] = test system: 786-0 renal
[8] = test system: SK-MEL-28 melanoma
[9] = test system: OVCAR-5 ovarian
[10] = test system: HCC-2998 colon
[11] = test system: MOLT-4 leukemia
[12] = test system: UO-31 renal
[13] = test system: SF-295 CNS
[14] = test system: MDA-MB-231 breast
[15] = test system: OVCAR-3 ovarian
[16] = test system: U251 CNS
[17] = test system: OVCAR-4 ovarian
[18] = test system: UACC-62 melanoma
[19] = test system: NCI-H460 lung
[20] = test system: KM12 colon
[21] = test system: OVCAR-8 ovarian
[22] = test system: NCI-H226 lung
[23] = test system: SK-MEL-2 melanoma
[24] = test system: IGROV1 ovarian
[25] = test system: COLO 205 colon
[26] = test system: SNB-75 CNS
[27] = test system: HS 578T breast
[28] = test system: A498 renal
[29] = test system: HOP-62 NSCLC
[30] = test system: RPMI-8226 leukemia
[31] = test system: TK-10 renal
[32] = test system: CAKI-1 renal
[33] = test system: SF-539 CNS
[34] = test system: SF-268 CNS
[35] = test system: DU-145 prostate
[36] = test system: NCI-H522 lung
[37] = test system: MALME-3M melanoma
[38] = test system: NCI/ADR-RES ovarian
[39] = test system: HCT-116 colon
[40] = test system: MCF7 breast
[41] = test system: HL-60(TB) leukemia
[42] = test system: NCI-H23 lung
[43] = test system: SK-OV-3 ovarian
[44] = test system: HCT-15 colon
[45] = test system: ACHN renal
[46] = test system: HT29 colon
[47] = test system: UACC-257 melanoma
[48] = test system: SW-620 colon
[49] = test system: M14 melanoma
[50] = test system: PC-3 prostate
[51] = test system: MDA-MB-435
[52] = test system: K-562 leukemia
[53] = test system: HOP-92 NSCLC
[54] = test system: SN12C renal
[55] = test system: SK-MEL-5 melanoma
[56] = test system: MDA-N
[57] = test system: EKVX NSCLC
[58] = test system: SNB-19 CNS
[59] = test system: RXF 393 renal
[60] = test system: DMS 273 small cell lung
[61] = test system: DLD-1 colon
[62] = test system: M19-MEL melanoma
[63] = test system: XF 498 CNS
[64] = test system: DMS 114 small cell lung
[65] = test system: SNB-78 CNS
[66] = test system: LXFL 529 NSCLC
[67] = test system: KM20L2 colon
[68] = test system: RXF-631 renal
[69] = test system: HOP-18 NSCLC

Measured: TGI

C[N+](C)(C)CC1Cc2ccccc2C1=O (stereo not given)
> 10 µM: [2] | [5] | [6] | [7] | [8] | [9] | [10] | [12] | [13] | [14] | [15] | [16] | [18] | [19] | [20] | [22] | [23] | [24] | [26] | [27] | [28] | [29] | [31] | [33] | [34] | [35] | [42] | [43] | [44] | [45] | [46] | [47] | [50] | [51] | [53] | [54] | [55] | [56] | [57] | [58] | [59]
6.49 µM: [3]
> 6.59 µM: [25]
4.56 µM: [36]
4.22 µM: [1]
> 3.16 µM: [21]
5.41 µM: [40]
7.11 µM: [4]
4.95 µM: [11]
3.11 µM: [39]
3.84 µM: [48]
5.07 µM: [52]
> 8.58 µM: [32]
4.53 µM: [37]
4.45 µM: [41]
> 6.85 µM: [38]
> 6.86 µM: [30]
> 6.99 µM: [49]
8.07 µM: [17]

C=CCOc1cc2c(cc1C(C)c1ccc(OC)cc1)OCO2 (stereo not given)
6.44 µM: [47]
> 74.3 µM: [34]
0.838 µM: [64]
2.6 µM: [41]
> 83.9 µM: [5]
1.21 µM: [67]
0.817 µM: [13]
> 100 µM: [2] | [7] | [8] | [9] | [60] | [14] | [16] | [17] | [61] | [62] | [23] | [24] | [28] | [31] | [32] | [35] | [37] | [40] | [42] | [44] | [45] | [48] | [50] | [52] | [65] | [54] | [56] | [57] | [58]
> 74.4 µM: [30]
1.91 µM: [51]
0.753 µM: [63]
> 87.5 µM: [18]
> 31.7 µM: [1]
> 62.7 µM: [29]
> 47.9 µM: [39]
> 42.8 µM: [49]
63.9 µM: [66]
> 56.3 µM: [55]
> 40.6 µM: [11]
0.695 µM: [4]
0.541 µM: [36]
12.7 µM: [10]
2.26 µM: [46]
65.9 µM: [20]
> 87.8 µM: [12]
1.34 µM: [33]
0.485 µM: [59]
5.97 µM: [21]
40.2 µM: [22]
0.527 µM: [26]

COC(=O)c1c/c(=N\NC(=O)CC(=O)Nc2ccccc2Cl)c2ccccc2o1
> 100 µM: [2] | [4] | [5] | [7] | [8] | [9] | [10] | [60] | [11] | [12] | [13] | [15] | [16] | [17] | [61] | [18] | [19] | [20] | [21] | [22] | [23] | [24] | [25] | [26] | [29] | [30] | [31] | [32] | [33] | [34] | [36] | [63] | [39] | [41] | [64] | [42] | [43] | [44] | [45] | [46] | [47] | [48] | [49] | [68] | [52] | [65] | [54] | [55] | [57] | [58] | [66] | [67]

CC(SC1=CC(=O)c2c(Cl)ccc(O)c2C1=O)C(=O)O (stereo not given)
> 100 µM: [1] | [28] | [52] | [67]
34.2 µM: [63]
33.9 µM: [44]
31 µM: [26]
33.3 µM: [13]
32.8 µM: [33]
32.9 µM: [8]
38.3 µM: [20]
34.4 µM: [39]
33.4 µM: [24]
69.4 µM: [19]
39.9 µM: [57]
57.3 µM: [22]
45.1 µM: [25]
48.1 µM: [2]
35.3 µM: [31]
21.7 µM: [5]
33.6 µM: [23]
37.9 µM: [4]
44.2 µM: [34]
26.3 µM: [65]
29.5 µM: [66]
75.8 µM: [69]
27.5 µM: [55]
57.7 µM: [11]
37.7 µM: [37]
76.4 µM: [30]
36.2 µM: [48]
12.2 µM: [41]
40.2 µM: [16]
36.3 µM: [21]
35.6 µM: [60]
30.3 µM: [47]
41.1 µM: [10]
30.9 µM: [54]
34.7 µM: [61]
38.6 µM: [53]
38.4 µM: [64]

CSC(=S)N(C)c1nc(=[N+](C)C)ss1
> 100 µM: [1] | [2] | [4] | [69] | [7] | [8] | [9] | [10] | [60] | [11] | [12] | [13] | [16] | [17] | [61] | [18] | [19] | [20] | [21] | [22] | [62] | [23] | [24] | [26] | [28] | [29] | [30] | [31] | [32] | [33] | [34] | [36] | [63] | [37] | [39] | [41] | [64] | [42] | [43] | [44] | [45] | [46] | [47] | [48] | [49] | [52] | [53] | [65] | [54] | [55] | [57] | [58] | [66] | [67] | [59]

COc1cc2c(cc1OC)-c1c(cnn1C1OC(COC(C)=O)C(OC(C)=O)C(OC(C)=O)C1OC(C)=O)CC2 (stereo not given)
98.2 µM: [26]
> 28.7 µM: [4]
37.3 µM: [36]
> 57.3 µM: [30]
> 100 µM: [1] | [2] | [5] | [7] | [8] | [9] | [60] | [11] | [12] | [13] | [15] | [16] | [17] | [61] | [18] | [19] | [20] | [21] | [22] | [62] | [23] | [24] | [25] | [28] | [29] | [31] | [32] | [33] | [34] | [39] | [64] | [42] | [43] | [44] | [45] | [46] | [47] | [48] | [49] | [52] | [53] | [65] | [55] | [57] | [58] | [66] | [67]

CC(=O)OC1[C@H]2c3cc4c(cc3CN3CCC(C[C@@H]1OC(C)=O)C23)OCO4 (stereo not given in full)
> 75 µM: [1] | [2] | [4] | [5] | [7] | [8] | [10] | [60] | [11] | [12] | [13] | [15] | [16] | [61] | [18] | [19] | [20] | [21] | [62] | [24] | [25] | [26] | [29] | [30] | [31] | [33] | [34] | [36] | [37] | [39] | [41] | [64] | [42] | [43] | [44] | [45] | [46] | [47] | [48] | [49] | [52] | [65] | [54] | [57] | [58] | [66] | [67] | [59]
59.9 µM: [22]
